Conditions: both, human, in vivo, po, 60 mg
Procedure: The clinical study was conducted at Biotrial Rennes (Rennes, France), in accordance with the Declaration of Helsinki. The study (NG100-101) was a double-blind, placebo-controlled, ascending single- and multiple-dose study of the safety, tolerability, and pharmacokinetics of metopimazine administered orally to healthy adult subjects. The study protocol, informed consent form, and appropriate related documents were approved by the institutional review board, and all subjects provided written informed consent prior to participation in the study.
In this study, sequential ascending single doses were administered to 4 cohorts of 8 participants (6 actives and 2 placebos per cohort, in cohorts 1, 2 and 3 following a randomization 6:2 and in cohort 4 with a 1:1 randomization for the two sentinel participants. In the morning, after at least 10 hours of fasting overnight, eight healthy adult subjects (male or female aged 18 to 45), were orally administered metopimazine (or a matching placebo). Cohort 1-4 received a matching placebo or ascending doses of Vogalene (metopimazine) capsules at the doses of 15 mg, 30 mg, 45 mg, or 60 mg, respectively. […] Plasma concentrations of metopimazine, metopimazine acid and metopimazine sulfoxide were quantified using LC-MS/MS methods. […]

CS(=O)(=O)c1ccc2c(c1)N(CCCN1CCC(C(N)=O)CC1)c1ccccc1S2 [MPZ, metopimazine]
Tmax: 3 h
